For 24 compounds, IC90 results are on record in patent US20230203043A1, “NOVEL IMIDAZOPYRAZINE DERIVATIVES” (Hoffmann-La Roche Inc., priority 2020, published 2023).

Where a name gives a salt, the structure may show the parent alone.

One experiment relates to Acinetobacter baumannii ATCC17961. The experiment in a line: Antimicrobial susceptibility testing: 90% growth inhibitory concentration (IC90) determination in Iso-Sensitest broth, OD600 growth. To be noted: Acinetobacter baumannii, ATCC17961, 16 h, read-out: A. baumannii ATCC 17961 IC90 (uM), strain ATCC 17961, OD600 growth over 16 h. The format is cell-based. Put shortly: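 Each strain, at about 5×10^(5) CFU/ml, was incubated with twofold dilutions of compound at 35±2° C for 16 h, and IC90 was calculated from kinetic optical density measured at 600 nm during logarithmic growth.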
`CCc1cc(Nc2nccn3c(-c4cn(C5CC(F)(F)C5)nc4C(F)(F)F)cnc23)ccc1C(=O)NCCOCCCN` [Example 670, N-(2-(3-aminopropoxy)ethyl)-4-((3-(1-(3,3-difluorocyclobutyl)-3-(trifluoromethyl)-1H-pyrazol-4-yl)imidazo[1,2-a]pyrazin-8-yl)amino)-2-ethylbenzamide formate]: the concentration for an effect of 90% (IC90) was found to be 0.304 µM. The same measure, in the same setting: for `Cc1cc(Nc2nccn3c(-c4cn(CC#N)nc4C(F)(F)F)cnc23)ccc1C(=O)N[C@H](C)C(=O)N[C@H]1CCNC1` [Example 738, 4-[[3-[1-(cyanomethyl)-3-(trifluoromethyl)pyrazol-4-yl]imidazo[1,2-a]pyrazin-8-yl]amino]-2-methyl-N-[(1R)-1-methyl-2-oxo-2-[[(3S)-pyrrolidin-3-yl]amino]ethyl]benzamide formate] the value was 0.526 µM; for `CCc1cc(Nc2nccn3c(-c4cn(CC(F)F)nc4C(F)(F)F)cnc23)ccc1C(=O)NC1CCCNC1` (stereo not drawn) [Example 563, 4-((3-(1-(2,2-difluoroethyl)-3-(trifluoromethyl)-1H-pyrazol-4-yl)imidazo[1,2-a]pyrazin-8-yl)amino)-2-ethyl-N-(piperidin-3-yl)benzamide formate], 0.575 µM. The same measure, in the same setting: in the case of `CCc1cc(Nc2nccn3c(-c4cn(CC(F)F)nc4C(F)(F)F)cnc23)ccc1C(=O)NCCNC(=O)[C@@H](C)N` [Example 643, (R)-N-(2-(2-aminopropanamido)ethyl)-4-((3-(1-(2,2-difluoroethyl)-3-(trifluoromethyl)-1H-pyrazol-4-yl)imidazo[1,2-a]pyrazin-8-yl)amino)-2-ethylbenzamide formate] it was 0.232 µM; in that of `CNC(=O)c1ccc(Nc2nccn3c(-c4cn(CCN(C)C)nc4C(F)(F)F)cnc23)cc1Cl` [Example 591, 2-chloro-4-((3-(1-(2-(dimethylamino)ethyl)-3-(trifluoromethyl)-1H-pyrazol-4-yl)imidazo[1,2-a]pyrazin-8-yl)amino)-N-methylbenzamide formate], 0.483 µM.

Turning to `Cc1cc(Nc2nccn3c(-c4cn(CC#N)nc4C(F)(F)F)cnc23)ccc1C(=O)N1CCN(C(=O)[C@@H]2CCNC[C@H]2O)CC1` [Example 380, formic acid; 2-[4-[8-[4-[4-[(3S,4R)-3-hydroxypiperidine-4-carbonyl]piperazine-1-carbonyl]-3-methylanilino]imidazo[1,2-a]pyrazin-3-yl]-3-(trifluoromethyl)pyrazol-1-yl]acetonitrile], the IC90 is 0.623 µM.

The same experiment, now with this note: Acinetobacter baumannii, ATCC17961, 16 h, strain ATCC 17961, OD600 growth over 16 h, read-out: A. baumannii ATCC 17961 IC90.
Regarding `C#CCn1cc(-c2cnc3c(Nc4ccc(C(=O)N5CCC(CN)CC5)c(CC)c4)nccn23)c(C(F)(F)F)n1` [Example 46, [4-(aminomethyl)piperidin-1-yl]-[2-ethyl-4-[[3-[1-prop-2-ynyl-3-(trifluoromethyl)pyrazol-4-yl]imidazo[1,2-a]pyrazin-8-yl]amino]phenyl] methanone], the IC90 amounted to 0.093 µM. As to `CCc1cc(Nc2nccn3c(-c4cn(CC#N)nc4SC)cnc23)ccc1C(=O)NCCOCCN` [Example 831, N-(2-(2-aminoethoxy)ethyl)-4-((3-(1-(cyanomethyl)-3-(methylthio)-1H-pyrazol-4-yl)imidazo[1,2-α]pyrazin-8-yl)amino)-2-ethylbenzamide], the IC90 came out at 0.32 µM.

`CCc1cc(Nc2nccn3c(-c4cn(CC#N)nc4C(F)(F)F)cnc23)ccc1C(=O)NCC(=O)NCC1CCNCC1` [Example 524, 4-[[3-[1-(cyanomethyl)-3-(trifluoromethyl)pyrazol-4-yl]imidazo[1,2-a]pyrazin-8-yl]amino]-2-ethyl-N-[2-oxo-2-(4-piperidylmethylamino)ethyl] benzamide formate]: the IC90 amounted to 0.395 µM. Turning to `CCc1cc(Nc2nccn3c(-c4cn(CC#N)nc4C(F)(F)F)cnc23)ccc1C(=O)NCCCNC(=O)N1CC[C@@H](N)C1` [Example 685, (R)-3-amino-N-(3-(4-((3-(1-(cyanomethyl)-3-(trifluoromethyl)-1H-pyrazol-4-yl)imidazo[1,2-a]pyrazin-8-yl)amino)-2-ethylbenzamido)propyl) pyrrolidine-1-carboxamide formate], the IC90 came to 0.34 µM. For the compound `N#CCn1cc(-c2cnc3c(Nc4ccc(C(=O)N5CCC(NC(=O)C6CCNCC6)CC5)c(Cl)c4)nccn23)c(C(F)(F)F)n1` [Example 142, N-[1-[2-chloro-4-[[3-[1-(cyanomethyl)-3-(trifluoromethyl)pyrazol-4-yl]imidazo[1,2-a]pyrazin-8-yl]amino]benzoyl]piperidin-4-yl]piperidine-4-carboxamide], the IC90 worked out at 0.554 µM.

As for `C[C@H]1CN(C(=O)c2ccc(Nc3nccn4c(-c5c[nH]nc5C(F)(F)F)cnc34)cc2Cl)CCN1` [Example 321, [2-chloro-4-[[3-[3-(trifluoromethyl)-1H-pyrazol-4-yl]imidazo[1,2-a]pyrazin-8-yl]amino]phenyl]-[(3S)-3-methylpiperazin-1-yl]methanone], the IC90 stood at 0.901 µM. As to `O=C(CN1CCN(C(=O)c2ccc(Nc3nccn4c(-c5cn(CC(F)F)nc5C(F)(F)F)cnc34)cc2Cl)CC1)N[C@@H]1CCNC1` [Example 601, (R)-2-(4-(2-chloro-4-((3-(1-(2,2-difluoroethyl)-3-(trifluoromethyl)-1H-pyrazol-4-yl)imidazo [1,2-a]pyrazin-8-yl)amino)benzoyl)piperazin-1-yl)-N-(pyrrolidin-3-yl) acetamide formate], the IC90 was found to be 0.422 µM.

For `N#CCn1cc(-c2cnc3c(Nc4ccc(C(=O)N5CC(NC(=O)N[C@H]6CCNC6)C5)c(Cl)c4)nccn23)c(C(F)(F)F)n1` [Example 172, 1-[1-[2-chloro-4-[[3-[1-(cyanomethyl)-3-(trifluoromethyl)pyrazol-4-yl]imidazo[1,2-a]pyrazin-8-yl]amino]benzoyl]azetidin-3-yl]-3-[(3S)-pyrrolidin-3-yl]urea], the IC90 was 0.832 µM. Still for that read-out and setting: in the case of `CCOCCCNC(=O)c1ccc(Nc2nccn3c(-c4cn(CC#N)nc4C(F)(F)F)cnc23)cc1CC` [Example 205, 4-[[3-[1-(cyanomethyl)-3-(trifluoromethyl)pyrazol-4-yl]imidazo[1,2-a]pyrazin-8-yl]amino]-N-(3-ethoxypropyl)-2-ethylbenzamide] it was 0.256 µM; in that of `CCCn1cc(-c2cnc3c(Nc4ccc(C(=O)NCCOCCN)c(CC)c4)nccn23)c(C(F)(F)F)n1` [Example 25, N-[2-(2-aminoethoxy)ethyl]-2-ethyl-4-[[3-[1-propyl-3-(trifluoromethyl)pyrazol-4-yl]imidazo[1,2-a]pyrazin-8-yl]amino]benzamide hydrochloride], 0.141 µM.

Regarding `CCc1cc(Nc2nccn3c(-c4c[nH]nc4C(F)(F)F)cnc23)ccc1C(=O)NC` [Example 350, 2-ethyl-N-methyl-4-[[3-[3-(trifluoromethyl)-1H-pyrazol-4-yl]imidazo[1,2-a]pyrazin-8-yl]amino]benzamide], the IC90 worked out at 0.371 µM.

Take `CCc1cc(Nc2nccn3c(-c4cn(CC(F)F)nc4C(F)(F)F)cnc23)ccc1C(=O)NCCCNC(=O)[C@H]1C[C@H](N)C1` [Example 542, N-(3-((1r,3r)-3-aminocyclobutane-1-carboxamido)propyl)-4-((3-(1-(2,2-difluoroethyl)-3-(trifluoromethyl)-1H-pyrazol-4-yl)imidazo[1,2-a]pyrazin-8-yl)amino)-2-ethylbenzamide formate]: the IC90 was 0.196 µM. Same read-out and setting: for `C[C@@H](NC(=O)c1ccc(Nc2nccn3c(-c4cn(CC#N)nc4C(F)(F)F)cnc23)cc1Cl)C(=O)N[C@H]1CCNC1` [Example 710, 2-chloro-4-[[3-[1-(cyanomethyl)-3-(trifluoromethyl)pyrazol-4-yl]imidazo[1,2-a]pyrazin-8-yl]amino]-N-[(1R)-1-methyl-2-oxo-2-[[(3S)-pyrrolidin-3-yl]amino]ethyl] benzamide formate] the value was 0.408 µM. Take `NC1CCN(C(=O)c2ccc(Nc3nccn4c(-c5cn(CC(F)F)nc5C(F)(F)F)cnc34)cc2Cl)CC1` [Example 103, (4-aminopiperidin-1-yl)-[2-chloro-4-[[3-[1-(2,2-difluoroethyl)-3-(trifluoromethyl)pyrazol-4-yl]imidazo[1,2-a]pyrazin-8-yl]amino]phenyl] methanone]: the IC90 was determined as 0.195 µM. Consider `O=C(c1ccc(Nc2nccn3c(-c4c[nH]nc4C(F)(F)F)cnc23)cc1Cl)N1CCNCC1` [Example 431, [2-chloro-4-[[3-[3-(trifluoromethyl)-1H-pyrazol-4-yl]imidazo[1,2-a]pyrazin-8-yl]amino]phenyl]-piperazin-1-ylmethanone], for which the IC90 is 0.449 µM. The same measure, in the same setting: in the case of `N#CCn1cc(-c2cnc3c(Nc4ccc(C(=O)N5CC(NC(=O)N[C@@H]6CCNC6)C5)c(Cl)c4)nccn23)c(C(F)(F)F)n1` [Example 171, 1-[1-[2-chloro-4-[[3-[1-(cyanomethyl)-3-(trifluoromethyl)pyrazol-4-yl]imidazo[1,2-a]pyrazin-8-yl]amino]benzoyl]azetidin-3-yl]-3-[(3R)-pyrrolidin-3-yl]urea] it was 0.509 µM.

The experiment is the same for the next values; noted with them: read-out: A. baumannii ATCC 17961 IC90, strain ATCC 17961, OD600 growth over 16 h.
Regarding `Cc1cc(Nc2nccn3c(-c4c[nH]nc4C(F)(F)F)cnc23)ccc1C(=O)N1CCN(C(=O)[C@@H]2C[C@@H](O)CN2)CC1` [Example 459, formic acid; [4-[(2S,4R)-4-hydroxypyrrolidine-2-carbonyl)piperazin-1-yl]-[2-methyl-4-[[3-[3-(trifluoromethyl)-1H-pyrazol-4-yl]imidazo[1,2-a]pyrazin-8-yl]amino]phenyl]methanone], the IC90 was determined as 0.762 µM.

The experiment is the same for the next values; noted with them: strain ATCC 17961, OD600 growth over 16 h, read-out: A. baumannii ATCC 17961 IC90.
For `N#CCCn1cc(-c2cnc3c(Nc4ccc(C(=O)N5CCN(C(=O)NC6CNC6)CC5)c(Cl)c4)nccn23)c(C(F)(F)F)n1` [Example 246, N-(azetidin-3-yl)-4-[2-chloro-4-[[3-[1-(2-cyanoethyl)-3-(trifluoromethyl)pyrazol-4-yl]imidazo[1,2-a]pyrazin-8-yl]amino]benzoyl] piperazine-1-carboxamide formate], the IC90 was 0.533 µM.

Usually IC90 stands for the concentration needed for an effect of 90%.
